Laboratory results reported in the supplement of paper PMC11061612.

Columns and labels:
Test in all cases: combination Emax (second highest fraction inhibited in the dose matrix, 72 h); higher = more inhibition; extreme values may be limits of the assay
5637 (Bladder Carcinoma) = tested on: 5637 (Bladder Carcinoma)
How it was run: (§1)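 Cell lines in DMEM/F12 or RPMI with 10% FBS were plated in 1536-well plates, held 24 hours at 37°C, 5% CO2, then given two-drug dose matrices for 72 hours (DMSO typically 0.2%). Viability was read by CellTiter-Glo 2.0 luminescence and scaled as inhibition from 0 (vehicle wells) to 1 (blank wells). Combination Emax is the second-highest inhibition in the matrix; Bliss excess is observed combination effect minus expected EA + EB − EA·EB, EA and EB being single-agent effects.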

[1] = tested on: G-402 (Other Solid Carcinomas)
How it was run: as §1

[2] = tested on: EPLC-272H (Other Solid Carcinomas)
How it was run: as §1

COLO-792 (Melanoma) = tested on: COLO-792 (Melanoma)
How it was run: as §1

[3] = tested on: NCI-H2228 (Lung Adenocarcinoma)
How it was run: as §1

NB13 (Neuroblastoma) = tested on: NB13 (Neuroblastoma)
How it was run: as §1

[4] = tested on: CAL-27 (Oral Cavity Carcinoma)
How it was run: as §1

[5] = tested on: GA-10 (Burkitt's Lymphoma)
How it was run: as §1

[6] = tested on: CESS (Acute Myeloid Leukemia)
How it was run: as §1

[7] = tested on: DMS-53 (Small Cell Lung Carcinoma)
How it was run: as §1

[8] = tested on: huH-1 (Hepatocellular Carcinoma)
How it was run: as §1

[9] = tested on: CA46 (Burkitt's Lymphoma)
How it was run: as §1

RH-41 (Rhabdomyosarcoma) = tested on: RH-41 (Rhabdomyosarcoma)
How it was run: as §1

[10] = tested on: GCT (Other Solid Carcinomas)
How it was run: as §1

[11] = tested on: HT55 (Colorectal Carcinoma)
How it was run: as §1

[12] = tested on: TE-10 (Esophageal Squamous Cell Carcinoma)
How it was run: as §1

[13] = tested on: DU-4475 (Breast Carcinoma)
How it was run: as §1

[14] = tested on: LS-411N (Colorectal Carcinoma)
How it was run: as §1

EW-16 (Ewing's Sarcoma) = tested on: EW-16 (Ewing's Sarcoma)
How it was run: as §1

[15] = tested on: HCC1428 (Breast Carcinoma)
How it was run: as §1

Row | Structure (SMILES) | combination Emax (5637 (Bladder Carcinoma)) | combination Emax [1] | combination Emax [2] | combination Emax (COLO-792 (Melanoma)) | combination Emax [3] | combination Emax (NB13 (Neuroblastoma)) | combination Emax [4] | combination Emax [5] | combination Emax [6] | combination Emax [7] | combination Emax [8] | combination Emax [9] | combination Emax (RH-41 (Rhabdomyosarcoma)) | combination Emax [10] | combination Emax [11] | combination Emax [12] | combination Emax [13] | combination Emax [14] | combination Emax (EW-16 (Ewing's Sarcoma)) | combination Emax [15]
1 | CN(CCO)CC[C@H](CSc1ccccc1)Nc1ccc(S(=O)(=O)NC(=O)c2ccc(N3CCC([C@@H](O)c4ccccc4-c4ccc(Cl)cc4)CC3)cc2)cc1S(=O)(=O)C(F)(F)F [AZD4320] + C1CN(CCC1(C(=O)N[C@@H](CCO)C2=CC=C(C=C2)Cl)N)C3=NC=NC4=C3C=CN4 [Capivasertib] (first compound max 1 µM, 7x7, partner max 3 µM) | 0.328 | 0.327 | 0.642 | 0.78 | 0.329 | 1 | 0.191 | 0.586 | 0.69 | 0.965 | 0.197 | 0.251 | 1 | 0.449 | 0.292 | 0.231 | 0.883 | 0.543 | 0.461 | 0.446
2 | CN(CCO)CC[C@H](CSc1ccccc1)Nc1ccc(S(=O)(=O)NC(=O)c2ccc(N3CCC([C@@H](O)c4ccccc4-c4ccc(Cl)cc4)CC3)cc2)cc1S(=O)(=O)C(F)(F)F [AZD4320] + C=CCn1c(=O)c2cnc(Nc3ccc(N4CCN(C)CC4)cc3)nc2n1-c1cccc(C(C)(C)O)n1 [AZD1775] (first compound max 1 µM, partner max 1 µM) | 0.979 | 0.491 | 0.909 | 0.944 | 0.512 | 1 | 0.364 | 1 | 1 | 0.977 | 0.613 | 0.667 | 1 | 0.481 | 0.899 | 0.848 | 1 | 0.938 | 0.904 | 0.505
3 | CN(CCO)CC[C@H](CSc1ccccc1)Nc1ccc(S(=O)(=O)NC(=O)c2ccc(N3CCC([C@@H](O)c4ccccc4-c4ccc(Cl)cc4)CC3)cc2)cc1S(=O)(=O)C(F)(F)F [AZD4320] + Nc1ccn([C@@H]2O[C@H](CO)[C@@H](O)C2(F)F)c(=O)n1 [Gemcitabine] (first compound max 1 µM, 7x7, partner max 0.3 µM) | – | – | – | – | – | 0.934 | – | – | – | – | – | – | – | – | – | – | – | – | – | –
4 | COc1nnc2ccc(N3CCC(c4ccc(OCCN5CCN(C)C(=O)[C@H]5C)cc4)CC3)nn12 [AZD5153] + CN(CC[C@H](CSC1=CC=CC=C1)NC2=C(C=C(C=C2)S(=O)(=O)NC(=O)C3=CC=C(C=C3)N4CCC(CC4)[C@H](C5=CC=CC=C5C6=CC=C(C=C6)Cl)O)S(=O)(=O)C(F)(F)F)CCO [AZD4320] (first compound max 1 µM, 7x7, partner max 1 µM) | 0.957 | 0.846 | 0.868 | 0.856 | 0.357 | – | 0.608 | 0.672 | 0.841 | 0.987 | 0.354 | 0.598 | 1 | 0.595 | 0.519 | – | 1 | 0.978 | 0.674 | 0.915
5 | Cc1cc2ncnn2cc1Nc1ncc2c(n1)n(C1CCOCC1)c(=O)n2C [AZD7648] + COc1cc([C@@H]2c3cc4c(cc3[C@@H](O[C@@H]3O[C@@H]5CO[C@@H](C)O[C@H]5[C@H](O)[C@H]3O)[C@H]3COC(=O)[C@H]23)OCO4)cc(OC)c1O [Etoposide] (first compound max 10 µM, 7x7, partner max 10 µM) | – | – | – | – | – | 0.653 | – | – | – | – | – | – | – | – | – | – | – | – | – | –
6 | Cc1nc(Nc2ncc(C(=O)Nc3c(C)cccc3Cl)s2)cc(N2CCN(CCO)CC2)n1 [Dasatinib] + CC(=O)Nc1cccc(-n2c(=O)n(C3CC3)c(=O)c3c(Nc4ccc(I)cc4F)n(C)c(=O)c(C)c32)c1 [Trametinib] (first compound max 2 µM, 7x7, partner max 1 µM) | 0.973 | 0.846 | 0.956 | 0.556 | 0.737 | 0.169 | 0.868 | 0.609 | 0.527 | 0.334 | 0.305 | 0.306 | 0.443 | 0.554 | 0.751 | – | 1 | 0.834 | 0.281 | 0.205
7 | COc1cc2ncnc(Nc3ccc(F)c(Cl)c3)c2cc1OCCCN1CCOCC1 [Gefitinib] + CC(C)n1c(=O)n(C)c2cnc3cc(F)c(-c4ccc(OCCCN5CCCCC5)nc4)cc3c21 [AZD1390] (first compound max 10 µM, 7x7, partner max 0.3 µM) | 0.495 | 0.214 | 0.565 | 0.251 | 0.203 | 0.178 | 0.689 | 0.353 | 0.195 | 0.147 | 0.134 | 0.297 | 0.147 | 0.12 | 0.353 | – | 0.157 | 0.0453 | 0.176 | 0.101
8 | CC(=O)c1c(C)c2cnc(Nc3ccc(N4CCNCC4)cn3)nc2n(C2CCCC2)c1=O [Palbociclib] + CN(CC[C@H](CSC1=CC=CC=C1)NC2=C(C=C(C=C2)S(=O)(=O)NC(=O)C3=CC=C(C=C3)N4CCC(CC4)[C@H](C5=CC=CC=C5C6=CC=C(C=C6)Cl)O)S(=O)(=O)C(F)(F)F)CCO [AZD4320] (first compound max 10 µM, 7x7, partner max 1 µM) | 0.619 | 0.781 | 0.594 | 0.975 | 0.275 | – | 0.162 | 0.95 | 0.906 | 1 | 0.31 | 0.336 | 0.883 | 0.421 | 0.498 | – | 0.943 | 0.691 | 0.64 | 0.449
9 | N#Cc1cnc(Nc2cc(NC[C@H]3CNCCO3)c(C(F)(F)F)cn2)cn1 [SRA737] + C=CCn1c(=O)c2cnc(Nc3ccc(N4CCN(C)CC4)cc3)nc2n1-c1cccc(C(C)(C)O)n1 [AZD1775] (first compound max 10 µM, partner max 1 µM) | – | – | – | – | – | 0.853 | – | – | – | – | – | – | – | – | – | – | – | – | – | –
10 | N#Cc1cnc(Nc2cc(NC[C@H]3CNCCO3)c(C(F)(F)F)cn2)cn1 [SRA737] + CCc1c2c(nc3ccc(O)cc13)-c1cc3c(c(=O)n1C2)COC(=O)[C@]3(O)CC [SN-38] (first compound max 10 µM, 7x7, partner max 0.3 µM) | – | – | – | – | – | 0.88 | – | – | – | – | – | – | – | – | – | – | – | – | – | –
11 | N#Cc1cnc(Nc2cc(NC[C@H]3CNCCO3)c(C(F)(F)F)cn2)cn1 [SRA737] + O=c1[nH]cc(F)c(=O)[nH]1 [5-Fluorouracil] (first compound max 10 µM, 7x7, partner max 20 µM) | – | – | – | – | – | 0.732 | – | – | – | – | – | – | – | – | – | – | – | – | – | –
12 | C[C@@H](c1ccc2nccn2c1)n1nnc2ncc(-c3cnn(C)c3)nc21 [Savolitinib] + CC1(C)CCC(CN2CCN(c3ccc(C(=O)NS(=O)(=O)c4ccc(NCC5CCOCC5)c([N+](=O)[O-])c4)c(Oc4cnc5[nH]ccc5c4)c3)CC2)=C(c2ccc(Cl)cc2)C1 [Venetoclax] (first compound max 1 µM, 7x7, partner max 1 µM) | 0.0801 | 0.131 | 0.205 | 0.27 | 0.114 | 0.152 | 0.0502 | 0.101 | 0.204 | 0.395 | 0.149 | 0.0492 | 0.201 | 0.0973 | 0.0925 | – | 0.146 | 0.0933 | 0.12 | 0.125
13 | C[C@@H](c1ccc2nccn2c1)n1nnc2ncc(-c3cnn(C)c3)nc21 [Savolitinib] + CN(CC[C@H](CSC1=CC=CC=C1)NC2=C(C=C(C=C2)S(=O)(=O)NC(=O)C3=CC=C(C=C3)N4CCC(CC4)[C@H](C5=CC=CC=C5C6=CC=C(C=C6)Cl)O)S(=O)(=O)C(F)(F)F)CCO [AZD4320] (first compound max 1 µM, 7x7, partner max 1 µM) | 0.179 | 0.187 | 0.257 | 0.798 | 0.134 | – | 0.17 | 0.138 | 0.291 | 0.994 | 0.202 | 0.0638 | 0.806 | 0.2 | 0.155 | – | 0.871 | 0.277 | 0.416 | 0.476
14 | C[C@@H](c1ccc2nccn2c1)n1nnc2ncc(-c3cnn(C)c3)nc21 [Savolitinib] + Cc1c2c(nn1C)CSCc1cc(n(C)n1)CSc1cc(c3ccccc3c1)OCCCc1c(C(=O)O)n(C)c3c-2c(Cl)ccc13 [AZD5991] (first compound max 1 µM, 7x7, partner max 1 µM) | 0.0543 | 0.409 | 0.462 | 0.726 | 0.195 | 0.22 | 0.494 | 0.669 | 0.175 | 0.209 | 0.16 | 0.0743 | 0.888 | 0.211 | 0.187 | – | 0.173 | 0.188 | 0.167 | 0.971
